According to patent US20250032425A1, “FIRST IN CLASS USE OF ESTROGEN RECEPTOR BETA AGONISTS IN TREATING ANGELMAN SYNDROME AND RELEVANT AUTISM SPECTRUM DISORDERS” (BROWN UNIVERSITY, priority 2023, published 2025):
“Also recorded” adds a separate entry of the source.

What was measured:
untreated iOPCs = assay: Baseline Ki67 expression in untreated iOPCs (normal UBE3A levels); format: cell-based, human; conditions: 10 μM, 24 hours
Excerpt: FIG. 19A: Schematic illustrating the process of generating iPSC-derived oligodendrocyte lineage cells using a refined protocol from Vulakh and Yang, […] (Vulakh, G., and Yang, X. (2023). Characterizing the Neuron-Glial Interactions by the Co-cultures of Human iPSC-Derived Oligodendroglia and Neurons. Methods Mol. Biol. 2683. 10.1007/978-1-0716-3287-1_9). The human iPSCs employed in this study were the extensively characterized KOLF2.J1 control reference line, sourced from the INDI (Ramos, D. M., Skarnes, W. C., Singleton, A. B., Cookson, M. R., and Ward, M. E. (2021). Tackling neurodegenerative diseases with genomic engineering: A new stem cell initiative from the NIH. Neuron 109, 1080-1083. 10.1016/j.neuron.2021.03.022). Initially, iPSCs are converted into neural precursor cells (iNPCs, marked by Nestin) through SMAD inhibition in the first week. These iNPCs are then induced into oligodendrocyte precursor cells (iOPCs, marked by PDGFRa and A2B5) by the second week. […] FIG. 19H: Baseline effects of AC-186 on OPC proliferation analyzed by Ki67 expression in untreated iOPCs exposed to vehicle or drugs (AC-186 or DPN; 10 μM, 24 hours), with densitometric signals of immunoblotting normalized to GAPDH. […]

[1] = test system: Angelman syndrome (AS) mice; assay: Accelerating Rotarod test in AS mice; format: in vivo, mouse; conditions: 10 mg/kg daily IP, days 1-3, vs AS vehicle
Experimental: Animal handling and experimental use strictly followed NIH guidelines and protocols approved by the local Institutional Animal Care and Use Committee (IACUC) of Brown University. In all experiments, Mice were age and gender-matched. Multiple liters were used for all experiments. Weaned mice, housed in groups of two to four per cage, were maintained on a 12-h light/dark cycle with food and water ad libitum.
ESRβ agonist AC-186 treatment in vivo. 10 mg/kg AC-186 was daily IP delivered after dissolved at high concentration (30 mg/ml) in DMSO and further diluted in 20% PEG300. Vehicle groups received the same volume and concentration of diluted DMSO in 20% PEG300. Treatment started at P13 and continued until mice were sacrificed at P42.
This involved conducting two trials per day for three consecutive days, with a 20-minute rest interval between trials. During each trial, mice were placed on a rod that accelerated from 4 to 40 RPM over a five-minute period, and the time until each mouse fell was recorded. The average duration before falling was tracked and graphed across the three-day span.

[2] = test system: iOPCs treated with siUBE3A; assay: EdU nuclear incorporation in iOPCs treated with siUBE3A; format: cell-based, human; conditions: siUBE3A plus AC-186 at 10 μM for 24 hours
Experimental: The siRNAs targeting UBE3A (Thermo Fisher, #4390815 and #4390816), estrogen receptors (Thermo Scientific #145909 for ESRβ, #145539 for ESRα, and #4390824 for GPER), and negative control (Thermo Scientific, #AM4615) were obtained commercially. The 10-20 nM final concentration was used with Lipofectamine RNAiMAX transfection reagent (Thermo Scientific #13778075) and incubated for at least 48 hours before the treatments of therapeutic compounds or other reagents.
The EdU labeling kit from ThermoFisher Scientific (#C10637) was used to trace cell proliferation by incubating iOPCs with 2 μM EdU for three hours before fixation. Following EdU incorporation, cells were fixed in 4% paraformaldehyde, blocked with normal serum, and stained with primary antibodies, Rabbit anti-Ki67 and Mouse anti-UBE3A. These steps were conducted according to the manual of the labeling kit and also detailed immunofluorescence staining protocols described below, to ensure specific detection of the proliferation marker Ki67 and the ubiquitin-protein ligase UBE3A in the cells for subsequent imaging analysis.
For immunofluorescence with fixed cells in vitro, cultured cells were fixed in 4% PFA for 15 min at 37° C. followed by 0.25% TritonX-100 in PBS for 10 min at RT. Cells were blocked with 2% normal goat/donkey serum in PBS for 1 hour at RT. […]

SMILES | Ki67 expression, baseline (untreated iOPCs) | Rotarod time to fall [1] | EdU staining [2]
Oc1ccc(C2(c3ccccc3F)CCC(F)(F)CC2)cc1 [AC-186] | neither AC-186 nor DPN affected; also recorded: No significant changes | significant improvements; also recorded: increased | increased EdU staining
N#CC(Cc1ccc(O)cc1)c1ccc(O)cc1 (stereo not shown) [DPN, diarylpropionitrile, reference compound] | neither AC-186 nor DPN affected; also recorded: No significant changes |  | 
